A word on the IC50: it is the concentration at which inhibition is half-maximal. Low values mean inhibition by little substance, high ones a need for much substance.

These results are taken from ChEMBL document CHEMBL6103578, “Design and synthesis three novel series of derivatives using natural acetylcholinesterase inhibitor-RLMS as template and in vitro, in vivo and in silico activities verification” (Eur J Med Chem, 2025).

In assay [1] the target is Acetylcholinesterase (Homo sapiens, UniProt P22303). The assay is described as follows: Inhibition of AChE (unknown origin) using ATCI as substrate preincubated for 20 mins followed by substrate addition measured after 30 mins by DTNB assay.
Assay [2] deals with SH-SY5Y. The assay is described as follows: Neuroprotective effect against H2O2-induced cell injury in human SH-SY5Y cells assessed as cell survival at 25 to 100 uM preincubated for 1 hr followed by H2O2 addition measured after 2 hrs by MTT assay (reference value: 57.76 %). Particulars: dose 25-100 µM, time 3 hrs. It counts as functional.
Assay [3] concerns SH-SY5Y. The assay is described as follows: Neuroprotective effect against H2O2-induced cell injury in human SH-SY5Y cells assessed as cell survival at 25 uM preincubated for 1 hr followed by H2O2 addition measured after 2 hrs by MTT assay (reference value: 57.76 %). It counts as functional. Particulars: time 3 hrs, read-out: Activity. Background: Tetrazolium assays rely on reduction of a dye to a coloured formazan, in cell work by metabolically active cells.

Molecules are shown by their SMILES.

Acetylcholinesterase, sequence (P22303 whole entry): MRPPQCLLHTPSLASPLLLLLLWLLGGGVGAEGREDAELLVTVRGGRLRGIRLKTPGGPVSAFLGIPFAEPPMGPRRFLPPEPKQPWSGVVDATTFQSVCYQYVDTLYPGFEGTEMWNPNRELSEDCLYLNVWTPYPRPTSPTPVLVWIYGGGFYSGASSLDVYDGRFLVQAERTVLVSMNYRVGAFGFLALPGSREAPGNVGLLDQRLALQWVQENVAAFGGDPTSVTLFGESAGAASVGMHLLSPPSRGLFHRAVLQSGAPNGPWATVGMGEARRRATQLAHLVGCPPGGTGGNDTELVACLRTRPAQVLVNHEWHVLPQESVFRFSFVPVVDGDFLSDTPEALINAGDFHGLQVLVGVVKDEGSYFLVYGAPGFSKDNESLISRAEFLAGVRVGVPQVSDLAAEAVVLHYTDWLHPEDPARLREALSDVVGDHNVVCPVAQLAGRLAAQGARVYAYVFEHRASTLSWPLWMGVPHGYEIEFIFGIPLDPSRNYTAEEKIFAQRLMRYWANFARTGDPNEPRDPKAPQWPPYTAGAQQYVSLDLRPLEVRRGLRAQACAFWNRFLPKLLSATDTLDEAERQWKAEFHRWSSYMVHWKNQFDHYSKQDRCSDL

For `C[C@@H]1CC[C@]2(C(=O)O)CC[C@]3(C)C(=CC[C@@H]4[C@@]5(C)C[C@@H](OC(=O)c6ccc(Cl)cc6)[C@H](O)[C@@](C)(CO)[C@@H]5CC[C@]43C)[C@@H]2[C@]1(C)OC(=O)c1ccc(Cl)cc1`, in assay [1], the IC50 is 54.3 µM. In assay [2], the Activity was <57.76%.

As to `C[C@@H]1CC[C@]2(C(=O)O)CC[C@]3(C)C(=CC[C@@H]4[C@@]5(C)C(C=O)=C[C@@](C)(CO)[C@@H]5CC[C@]43C)[C@@H]2[C@]1(C)O`, the IC50 in assay [1] was > 100 µM. In assay [2], the Activity was >57.76%.

As to `C[C@@H]1CC[C@]2(C(=O)O)CC[C@]3(C)C(=CC[C@@H]4[C@@]5(C)C(C=O)=C[C@@](C)(COC(=O)CCc6ccccc6)[C@@H]5CC[C@]43C)[C@@H]2[C@]1(C)O`, in assay [1], the IC50 was 46.2 µM. Besides, in assay [2], the Activity is reported as >57.76%.

`C[C@@H]1CC[C@]2(C(=O)O)CC[C@]3(C)C(=CC[C@@H]4[C@@]5(C)C[C@@H](OC(=O)c6ccc(Cl)cc6)[C@H](OC(=O)c6ccc(Cl)cc6)[C@@](C)(COC(=O)c6ccc(Cl)cc6)[C@@H]5CC[C@]43C)[C@@H]2[C@]1(C)O` came in with an IC50 in assay [1] of 5.91 µM. Also, in assay [2], the Activity is recorded as >57.76%.

In turn, `C[C@@H]1CC[C@]2(C(=O)O)CC[C@]3(C)C(=CC[C@@H]4[C@@]5(C)C[C@@H](OC(=O)CCc6ccccc6)[C@H](O)[C@@](C)(CO)[C@@H]5CC[C@]43C)[C@@H]2[C@]1(C)O` displayed an IC50 in assay [1] of 11.5 µM. In assay [2], the Activity is given as >57.76%.

For `CCCCCCNC(=O)[C@]12CC[C@@H](C)[C@@](C)(O)[C@H]1C1=CC[C@@]3(C)[C@@](C)(CC[C@H]4[C@](C)(CO)[C@@H](O)[C@H](O)C[C@@]43C)[C@]1(C)CC2`, the IC50 in assay [1] was > 100 µM. The Activity in assay [2] is given as >57.76%.

`C[C@@H]1CC[C@]2(C(=O)NCc3ccc(Br)cc3)CC[C@]3(C)C(=CC[C@@H]4[C@@]5(C)C[C@@H](O)[C@H](O)[C@@](C)(CO)[C@@H]5CC[C@]43C)[C@@H]2[C@]1(C)O` yielded an IC50 in assay [1] of 84.5 µM. For the same molecule, in assay [2], the Activity is listed as >57.76%.

Turning to `COc1ccc(C(=O)O[C@]2(C)[C@H](C)CC[C@]3(C(=O)O)CC[C@]4(C)C(=CC[C@@H]5[C@@]6(C)C(C=O)=C[C@@](C)(CO)[C@@H]6CC[C@]54C)[C@@H]32)cc1`, the IC50 in assay [1] was > 100 µM. Also, the Activity in assay [2] was >57.76%.

As to `C[C@@H]1CC[C@]2(C(=O)O)CC[C@]3(C)C(=CC[C@@H]4[C@@]5(C)C[C@@H](OC(=O)c6ccc(C(F)(F)F)cc6)[C@H](OC(=O)c6ccc(C(F)(F)F)cc6)[C@@](C)(CO)[C@@H]5CC[C@]43C)[C@@H]2[C@]1(C)O`, the 50% inhibitory concentration (IC50) in assay [1] was 43.4 µM. Also, in assay [2], the Activity is reported as >57.76%.

The molecule `C[C@@H]1CC[C@]2(C(=O)O)CC[C@]3(C)C(=CC[C@@H]4[C@@]5(C)C[C@@H](OC(=O)c6ccc(Cl)cc6)[C@H](OC(=O)c6ccc(Cl)cc6)[C@@](C)(CO)[C@@H]5CC[C@]43C)[C@@H]2[C@]1(C)O` came in with an IC50 in assay [1] of 21.2 µM. The Activity in assay [2] is on record as >57.76%. The viability at 25 µM in assay [3] was 72.5%.

As to `C[C@@H]1CC[C@]2(C(=O)NCCc3ccc(Cl)c(Cl)c3)CC[C@]3(C)C(=CC[C@@H]4[C@@]5(C)C[C@@H](O)[C@H](O)[C@@](C)(CO)[C@@H]5CC[C@]43C)[C@@H]2[C@]1(C)O`, the IC50 in assay [1] was > 100 µM. The Activity in assay [2] is recorded as >57.76%.

On to `Cc1c(C)c2c(c(C)c1O)CCC(C)(C(=O)O)O2` (stereo not given) [TROLOX], for which the Activity in assay [2] is >57.76%. In addition, the viability at 25 µM in assay [3] was 72.6%.

In the case of `CCCC(=O)OC[C@]1(C)C=C(C=O)[C@@]2(C)[C@H]1CC[C@]1(C)[C@@H]2CC=C2[C@H]3[C@](C(=O)O)(CC[C@@H](C)[C@@]3(C)O)CC[C@]21C`, the IC50 in assay [1] is > 100 µM. Moreover, the Activity in assay [2] is <57.76%.

In assay [1], `C[C@@H]1CC[C@]2(C(=O)NCc3ccccc3Br)CC[C@]3(C)C(=CC[C@@H]4[C@@]5(C)C[C@@H](O)[C@H](O)[C@@](C)(CO)[C@@H]5CC[C@]43C)[C@@H]2[C@]1(C)O` had an IC50 of 47.7 µM. Further, in assay [2], the Activity was >57.76%.

Regarding `C[C@@H]1CC[C@]2(C(=O)O)CC[C@]3(C)C(=CC[C@@H]4[C@@]5(C)C[C@@H](O)OCC(C)(C=O)[C@@H]5CC[C@]43C)[C@@H]2[C@]1(C)O` (stereo not given in full), the half-maximal inhibitory concentration (IC50) in assay [1] is > 100 µM. For the same molecule, the Activity in assay [2] is given as >57.76%.

The molecule `C[C@@H]1CC[C@]2(C(=O)NCc3ccc(Cl)cc3)CC[C@]3(C)C(=CC[C@@H]4[C@@]5(C)C[C@@H](O)[C@H](O)[C@@](C)(CO)[C@@H]5CC[C@]43C)[C@@H]2[C@]1(C)O` came in with an IC50 in assay [1] of 64.8 µM. Also, the Activity in assay [2] was >57.76%.

In assay [1], `COc1ccc(C(=O)O[C@]2(C)[C@H](C)CC[C@]3(C(=O)O)CC[C@]4(C)C(=CC[C@@H]5[C@@]6(C)C[C@@H](O)[C@H](O)[C@@](C)(CO)[C@@H]6CC[C@]54C)[C@@H]32)cc1` showed an IC50 of 63.5 µM. Further, in assay [2], the Activity was >57.76%. The viability at 25 µM in assay [3] worked out at 72.5%.

Consider `C[C@@H]1CC[C@]2(C(=O)NCc3ccccc3F)CC[C@]3(C)C(=CC[C@@H]4[C@@]5(C)C[C@@H](O)[C@H](O)[C@@](C)(CO)[C@@H]5CC[C@]43C)[C@@H]2[C@]1(C)O`, for which the IC50 in assay [1] is > 100 µM. Besides, the Activity in assay [2] is <57.76%.

With `C[C@@H]1CC[C@]2(C(=O)NCCc3c[nH]c4ccccc34)CC[C@]3(C)C(=CC[C@@H]4[C@@]5(C)C[C@@H](O)[C@H](O)[C@@](C)(CO)[C@@H]5CC[C@]43C)[C@@H]2[C@]1(C)O`, in assay [1], half-maximal inhibition (IC50) was put at 51.3 µM. Besides, the Activity in assay [2] is >57.76%. For the same molecule, the viability at 25 µM in assay [3] was 72.5%.

As for `C[C@@H]1CC[C@]2(C(=O)NCc3cccc(F)c3)CC[C@]3(C)C(=CC[C@@H]4[C@@]5(C)C[C@@H](O)[C@H](O)[C@@](C)(CO)[C@@H]5CC[C@]43C)[C@@H]2[C@]1(C)O`, in assay [1], the IC50 is > 100 µM. The Activity in assay [2] is reported as <57.76%.

In the case of `C[C@@H]1CC[C@]2(C(=O)NCc3ccccc3)CC[C@]3(C)C(=CC[C@@H]4[C@@]5(C)C[C@@H](O)[C@H](O)[C@@](C)(CO)[C@@H]5CC[C@]43C)[C@@H]2[C@]1(C)O`, the IC50 in assay [1] is 65.1 µM. Also, the Activity in assay [2] is on record as >57.76%. Moreover, in assay [3], the viability at 25 µM came out at 72.5%.

In assay [1], `C[C@@H]1CC[C@]2(C(=O)O)CC[C@]3(C)C(=CC[C@@H]4[C@@]5(C)C(C=O)=C[C@@](C)(COC(=O)c6ccc(F)cc6)[C@@H]5CC[C@]43C)[C@@H]2[C@]1(C)O` showed an IC50 of 71.9 µM. Besides, the Activity in assay [2] was <57.76%.

Turning to `C[C@@H]1CC[C@]2(C(=O)O)CC[C@]3(C)C(=CC[C@@H]4[C@@]5(C)C(C=O)=C[C@@](C)(COC(=O)c6ccc(C(F)(F)F)cc6)[C@@H]5CC[C@]43C)[C@@H]2[C@]1(C)O`, in assay [1], the IC50 was > 100 µM. In addition, the Activity in assay [2] was >57.76%.

Regarding `COc1ccc(C(=O)OC[C@]2(C)C=C(C=O)[C@@]3(C)[C@H]2CC[C@]2(C)[C@@H]3CC=C3[C@H]4[C@](C(=O)O)(CC[C@@H](C)[C@@]4(C)OC(=O)c4ccc(OC)cc4)CC[C@]32C)cc1`, it took 70.2 µM to reach half-maximal inhibition in assay [1] (IC50). Moreover, the Activity in assay [2] is given as >57.76%.

As for `C[C@@H]1CC[C@]2(C(=O)O)CC[C@]3(C)C(=CC[C@@H]4[C@@]5(C)C[C@@H](O)[C@H](OC(=O)c6ccc(C(F)(F)F)cc6)[C@@](C)(CO)[C@@H]5CC[C@]43C)[C@@H]2[C@]1(C)O`, in assay [1], the IC50 was > 100 µM. In addition, the Activity in assay [2] is on record as >57.76%.

For `C[C@@H]1CC[C@]2(C(=O)NC3CCCCC3)CC[C@]3(C)C(=CC[C@@H]4[C@@]5(C)C[C@@H](O)[C@H](O)[C@@](C)(CO)[C@@H]5CC[C@]43C)[C@@H]2[C@]1(C)O`, in assay [1], the IC50 amounted to 80.4 µM. Moreover, the Activity in assay [2] is given as >57.76%.

For the molecule `C[C@@H]1CC[C@]2(C(=O)NCc3cccc(Br)c3)CC[C@]3(C)C(=CC[C@@H]4[C@@]5(C)C[C@@H](O)[C@H](O)[C@@](C)(CO)[C@@H]5CC[C@]43C)[C@@H]2[C@]1(C)O`, in assay [1], the IC50 worked out at 78 µM. In addition, in assay [2], the Activity is listed as >57.76%. Besides, the viability at 25 µM in assay [3] worked out at 72.5%.

Take `C[C@@H]1CC[C@]2(C(=O)O)CC[C@]3(C)C(=CC[C@@H]4[C@@]5(C)C(C=O)=C[C@@](C)(COC(=O)c6ccc(Cl)cc6)[C@@H]5CC[C@]43C)[C@@H]2[C@]1(C)OC(=O)c1ccc(Cl)cc1`: in assay [1], the concentration for half-maximal inhibition (IC50) was > 100 µM. For the same molecule, the Activity in assay [2] is on record as >57.76%.

As for `C[C@@H]1CC[C@]2(C(=O)NCc3ccc(F)cc3)CC[C@]3(C)C(=CC[C@@H]4[C@@]5(C)C[C@@H](O)[C@H](O)[C@@](C)(CO)[C@@H]5CC[C@]43C)[C@@H]2[C@]1(C)O`, the IC50 in assay [1] was > 100 µM. In addition, the Activity in assay [2] was <57.76%.

In the case of `CCCCCC(=O)OC[C@]1(C)C=C(C=O)[C@@]2(C)[C@H]1CC[C@]1(C)[C@@H]2CC=C2[C@H]3[C@](C(=O)O)(CC[C@@H](C)[C@@]3(C)O)CC[C@]21C`, in assay [1], the IC50 was > 100 µM. For the same molecule, in assay [2], the Activity is >57.76%.

`C[C@@H]1CC[C@]2(C(=O)O)CC[C@]3(C)C(=CC[C@@H]4[C@@]5(C)C[C@@H](O)[C@H](O)[C@@](C)(CO)[C@@H]5CC[C@]43C)[C@@H]2[C@]1(C)O`: the IC50 in assay [1] came to 23.2 µM. The Activity in assay [2] is reported as >57.76%. The viability at 25 µM in assay [3] stood at 72.8%.

The molecule `C[C@@H]1CC[C@]2(C(=O)NCc3cccc(Cl)c3)CC[C@]3(C)C(=CC[C@@H]4[C@@]5(C)C[C@@H](O)[C@H](O)[C@@](C)(CO)[C@@H]5CC[C@]43C)[C@@H]2[C@]1(C)O` came in with a 50% inhibitory concentration (IC50) in assay [1] of 63 µM. For the same molecule, the Activity in assay [2] was >57.76%.
